The record followed here is patent publication US20040077674A1, “Mappicine analogs, intermediates in the synthesis of mappicine analogs and methods of synthesis of mappicine analogs” (priority 2002, published 2004).

The test addresses T1, RNase H activity of HIV reverse transcriptase (Human immunodeficiency virus type 1 group M subtype B, UniProt P03366).
T1 construct: 2.5 nM of the p51/p66 RT heterodimer in the assay; made in house
Kind of test: Fluorescence (FRET)-based RNase H assay of HIV reverse transcriptase. The class given is biochemical, HIV-1. As to conditions: 20 μM inhibitor concentration. The method, then:
Recently, a fluorescence-based assay to perform screens in search of HIV RNase H inhibitors has been developed. The assay, which is carried out in 96-well microplates and is adaptable to robotics, is the first high-throughput screen for RNase H and is described in further detail in the Experimental section. HIV-1 RT and human RNase H were cloned, and thus comparative analysis of inhibitor action could be conducted simultaneously.
The assay for RNase H activity of HIV reverse transcriptase was the fluorescence-based assay described in detail in the Experimental section and discussed in U.S. Provisional Patent Application Serial No. 60/318,359. Assays were carried out in the absence and in the presence of mappicine analogs (10 μM or 20 μM final concentration). The results are reported as % residual activity, which is the RNase H activity of the enzyme in the presence of the mappicine analog divided by the RNase H activity of the enzyme in the absence of the mappicine analog, multiplied by 100. Alternatively, the results are reported as % inhibition, which is calculated as the ratio of the RNase H activity of the enzyme in the presence of the mappicine analog to the enzyme activity in the absence of the mappicine analog, multiplied by 100, and then subtracting this number from 100.
Assay for Ribonuclease H Activity Based on Fluorescence Resonance Energy Transfer (FRET)
Preparation of the Fluorophore-RNA/Quencher-DNA Hybrid Duplex Substrate.
The RNA/DNA hybrid duplex substrate for use in the assay comprises an RNA oligonucleotide of sequence 5′-GAU CUG AGC CUG GGA GCU-3′, modified at the 3′-end with Aminolink-2 and derivatized with fluorescein isothiocyanate, to provide a modified RNA oligonucleotide of the sequence 5′-GAU CUG AGC CUG GGA GCU-fluorescein-3′, annealed to a complementary DNA oligonucleotide of the sequence 5′-AGC TCC CAG GCT CAG ATC-3′ modified at the 5′-end with Aminolink-2 and derivatized with the FRET acceptor DABCYL succinimidyl ester, to provide a modified DNA oligonucleotide of the sequence 5′-DABCYL-AGC TCC CAG GCT CAG ATC-3′.
To prepare the 3′-fluorescein-RNA/5′-DABCYL-DNA hybrid duplex substrate, a known amount of 3′-fluorescein-RNA was dissolved in 20 mM Tris buffer (pH 8.0, 37° C.) to provide a final concentration of 5 μM. Two equivalents of the 5′-DABCYL-DNA oligonucleotide were added, and the mixture was heated to 90° C. for 5 min and cooled slowly to room temperature to allow duplex formation. The positioning of the fluorescein donor at the 3′-end of the RNA oligonucleotide and the DABCYL acceptor at the 5′-end of the DNA oligonucleotide provides a very close proximity of the donor and acceptor that results in a very intense quenching of the fluorescein emission in the intact RNA/DNA hybrid duplex substrate due to the spectral overlap of the fluorescence emission of fluorescein with the absorption spectrum of DABCYL. In addition, DABCYL is non-fluorescent, and thus cannot contribute any light emission. Both of these factors result in a very low background and provide a high signal-to-noise in the assay measurements. The ratio of the donor fluorescence in the absence and in the presence of its quencher is approximately fifteen-fold.
Microplate Assay Protocol for the Measurement of RNase H Activity Using the RNA/IDNA Hybrid Duplex Substrate.
Reaction assay mixtures contained 5 μl of a stock solution of 2.5 μM RNA/DNA hybrid duplex substrate added to 85 μl of assay buffer (50 mM Tris, pH 8.0, 37° C., containing 60 mM KCl and 2.5 mM MgCl2), prepared in the wells of a 96-well fluorescence microtiter plate, and warmed to 37° C. using the temperature control of the SpectraMax Gemini XS microplate spectrofluorometer (Molecular Devices). Reactions were started by the addition of 5 μl of a solution of recombinant HIV-1 reverse transcriptase (usually providing a final concentration of 2.5 nM of the p51/p66 RT heterodimer in the assay), and mixing using the automatic mixing function of the microplate spectrofluorometer. […]

Regarding `CCc1c2c(nc3ccc(C(F)(F)F)cc13)-c1cc(C(O)C3CCCCC3)c(C)c(=O)n1C2` (centres unmarked) [Compound 6.4.4], the “% inhibition of RNase H at 20 μM” value was 65%.
Usually inhibition stands for the share of the control response that was lost under treatment. Read a low inhibition as a response near the control. As for `Cc1ccc2nc3c(c(-c4ccccc4)c2c1)Cn1c-3cc(C(C)O)c(C)c1=O` (centres unmarked) [Compound 1.8.9, 7-(1-Hydroxyethyl)-2,8-dimethyl-1 2-phenyl-11H-indolizino[1,2-b]quinolin-9-one], testing at 20 µM gave an inhibition of 75%.
For the compound `CCc1c2c(nc3ccc(C(F)(F)F)cc13)-c1cc(C(O)C(C)C)c(C)c(=O)n1C2` (centres unmarked) [Compound 5.4.4, 1 2-Ethyl-7-(1-hydroxy-2-methylpropyl)-8-methyl-2-trifluoromethyl-11H-indolizino[1,2-b]quinolin-9-one], the inhibition at 20 µM was determined as 87%.
Still for that read-out and setting: in the case of `Cc1c(C(O)C2CCCCC2)cc2n(c1=O)Cc1c-2nc2ccc(C(F)(F)F)cc2c1-c1ccccc1` (centres unmarked) [Compound 6.8.4, 7-(Cyclohexylhydroxymethyl)-8-methyl-12-phenyl-2-trifluoromethyl-11H-indolizino[1,2-b]quinolin-9-one] it was 81%.
Take `CCCCc1c2c(nc3ccc(C(F)(F)F)cc13)-c1cc(C(O)CC)c(C)c(=O)n1C2` (centres unmarked) [Compound 3.6.4]: the “% inhibition of RNase H at 20 μM” value was 62%.
`CCCCCc1c2c(nc3ccc(OC)cc13)-c1cc(C(O)CCC)c(C)c(=O)n1C2` (centres unmarked) [Compound 2.7.3]: the “% inhibition of RNase H at 20 μM” value is 60%.
`Cc1ccc2nc3c(c(-c4ccccc4)c2c1)Cn1c-3cc(C(O)C(C)C)c(C)c1=O` (centres unmarked) [Compound 5.8.9]: the “% inhibition of RNase H at 20 μM” value was 69%.
The compound `CCCCCc1c2c(nc3c(F)cccc13)-c1cc(C(O)CC)c(C)c(=O)n1C2` (centres unmarked) [Compound 3.7.8, 4-Fluoro-7-(1-hydroxypropyl)-8-methyl-12-pentyl-1 1H-indolizino [1,2-b]quinolin-9-one] had an inhibition at 20 µM of 82%.
`CCc1c2c(nc3ccc(F)cc13)-c1cc(C(O)C3CCCCC3)c(C)c(=O)n1C2` (centres unmarked) [Compound 6.4.2]: the “% inhibition of RNase H at 20 μM” value worked out at 75%.
Turning to `CCc1c2c(nc3c(F)cccc13)-c1cc(C(O)CCC3CCCCC3)c(C)c(=O)n1C2` (centres unmarked) [Compound 7.4.8], the “% inhibition of RNase H at 20 μM” value is reported as 95%.
Still for that read-out and setting: then `CCCCCc1c2c(nc3ccc(C(F)(F)F)cc13)-c1cc(C(O)C3CCCCC3)c(C)c(=O)n1C2` (centres unmarked) [Compound 6.7.4], with 70%; and `CCC(O)c1cc2n(c(=O)c1C)Cc1c-2nc2ccccc2c1-c1ccccc1` (centres unmarked) [Compound 3.8.1], with 74%.
On to `CCCC(O)c1cc2n(c(=O)c1C)Cc1c-2nc2ccccc2c1-c1ccccc1` (centres unmarked) [Compound 2.8.1, 7-(1-Hydroxybutyl)-8-methyl-12-phenyl-11H-indolizino [1,2-b]quinolin-9-one], for which at 20 µM the inhibition was 83%.
Consider `CCCCCc1c2c(nc3ccc(OC)cc13)-c1cc(C(O)C3CCCCC3)c(C)c(=O)n1C2` (centres unmarked) [Compound 6.7.3], for which the “% inhibition of RNase H at 20 μM” value is 65%.
`Cc1c(C(O)C2CCCCC2)cc2n(c1=O)Cc1c-2nc2ccc(OC(F)(F)F)cc2c1-c1ccccc1` (centres unmarked) [Compound 6.8.7, 7-(Cyclohexylhydroxymethyl)-8-methyl-1 2-phenyl-2-trifluoromethoxy-11H-indolizino[1,2-b]quinolin-9-one] gave an inhibition at 20 µM of 87%.
Turning to `CCCCc1c2c(nc3ccc(CC)cc13)-c1cc(C(O)C(C)C)c(C)c(=O)n1C2` (centres unmarked) [Compound 5.6.5], the “% inhibition of RNase H at 20 μM” value stood at 100%.
Turning to `CCCCCc1c2c(nc3ccc(F)cc13)-c1cc(C(O)C(C)CC)c(C)c(=O)n1C2` (centres unmarked) [Compound 4.7.2], the “% inhibition of RNase H at 20 μM” value amounted to 58%.
Same read-out and setting: in the case of `CCc1c2c(nc3ccc(OC)cc13)-c1cc(C(O)C3CCCCC3)c(C)c(=O)n1C2` (centres unmarked) [Compound 6.4.3] it was 60%.
As to `CCCCCc1c2c(nc3ccc(OC)cc13)-c1cc(C(O)C(C)CC)c(C)c(=O)n1C2` (centres unmarked) [Compound 4.7.3], the “% inhibition of RNase H at 20 μM” value stood at 60%.
As to `CCC(C)C(O)c1cc2n(c(=O)c1C)Cc1c-2nc2ccccc2c1-c1ccccc1` (centres unmarked) [Compound 4.8.1, 7-(1-Hydroxy-2-methylbutyl)-8-methyl-1 2-phenyl-11H-indolizino[1,2-b]quinolin-9-one], the inhibition at 20 µM stood at 80%.
The compound `CCCCCc1c2c(nc3ccc(CC)cc13)-c1cc(C(O)C(C)CC)c(C)c(=O)n1C2` (centres unmarked) [Compound 4.7.5, 2-Ethyl-7-(1-hydroxy-2-methylbutyl)-8-methyl-1 2-pentyl-11H-indolizino[1,2-b]quinolin-9-one] yielded an inhibition at 20 µM of 100%.
`Cc1c(C(C)O)cc2n(c1=O)Cc1c-2nc2ccc(OC(F)(F)F)cc2c1-c1ccccc1` (centres unmarked) [Compound 1.8.7, 7-(1-Hydroxyethyl)-8-methyl-12-phenyl-2-trifluoromethoxy-11H-indolizino[1,2-b]quinolin-9-one]: the inhibition at 20 µM came out at 80%.
Turning to `CCCc1c2c(nc3c(F)cccc13)-c1cc(C(O)C(C)CC)c(C)c(=O)n1C2` (centres unmarked) [Compound 4.5.8], the “% inhibition of RNase H at 20 μM” value is given as 55%.
Turning to `CCCCc1c2c(nc3ccc(OC(F)(F)F)cc13)-c1cc(C(C)O)c(C)c(=O)n1C2` (centres unmarked) [Compound 1.6.7, 12-Butyl-7-(1-hydroxyethyl)-8-methyl-2-trifluoromethoxy-11H-indolizino[1,2-b]quinolin-9-one], at 20 µM the inhibition was 75%.
In the case of `CCCCc1c2c(nc3ccc(OC)cc13)-c1cc(C(O)CC)c(C)c(=O)n1C2` (centres unmarked) [Compound 3.6.3], the “% inhibition of RNase H at 20 μM” value was 66%.
In turn, `CCCC(O)c1cc2n(c(=O)c1C)Cc1c-2nc2ccc(C)cc2c1-c1ccccc1` (centres unmarked) [Compound 2.8.9, 7-(1-Hydroxybutyl)-2,8-dimethyl-1 2-phenyl-11H-indolizino[1,2-b]quinolin-9-one] returned an inhibition at 20 µM of 78%.
Take `CCCCCc1c2c(nc3ccc(C(F)(F)F)cc13)-c1cc(C(O)CCC3CCCCC3)c(C)c(=O)n1C2` (centres unmarked) [Compound 7.7.4]: the “% inhibition of RNase H at 20 μM” value was 75%.
On the same count and under the same terms, in the case of `CCCCCc1c2c(nc3ccc(C(F)(F)F)cc13)-c1cc(C(O)C(C)CC)c(C)c(=O)n1C2` (centres unmarked) [Compound 4.7.4] it was 55%; in that of `Cc1ccc2nc3c(c(-c4ccccc4)c2c1)Cn1c-3cc(C(O)CCC2CCCCC2)c(C)c1=O` (centres unmarked) [Compound 7.8.9], 61%.
`CCCCc1c2c(nc3c1cn1c(=O)c(C)c(C(O)C(C)C)cc31)=CC=C(OC)C2` (centres unmarked) [Compound 5.6.3, 12-Butyl-7-(1-hydroxy-2-methylpropyl)-2-methoxy-8-methyl-1H-indolizino[1,2-b]quinolin-9-one] displayed an inhibition at 20 µM of 90%.
On to `CCCCCc1c2c(nc3ccc(C)cc13)-c1cc(C(O)CC)c(C)c(=O)n1C2` (centres unmarked) [Compound 3.7.9, 7-(1-Hydroxypropyl)-2,8-dimethyl-1 2-pentyl-11H-indolizino[1,2-b]quinolin-9-one], for which the inhibition at 20 µM worked out at 75%.
Regarding `CCc1ccc2nc3c(c(-c4ccccc4)c2c1)Cn1c-3cc(C(O)CCC2CCCCC2)c(C)c1=O` (centres unmarked) [Compound 7.8.5], the “% inhibition of RNase H at 20 μM” value is on record as 65%.
With `Cc1ccc2nc3c(cc2c1)Cn1c-3cc(C(O)C2CCCCC2)c(C)c1=O` (centres unmarked) [Compound 6.1.9], the “% inhibition of RNase H at 20 μM” value was 65%.
`CCC(C)C(O)c1cc2n(c(=O)c1C)Cc1c-2nc2ccc(C)cc2c1-c1ccccc1` (centres unmarked) [Compound 4.8.9]: the “% inhibition of RNase H at 20 μM” value is 55%.
The compound `CCCCCc1c2c(nc3ccc(F)cc13)-c1cc(C(O)C3CCCCC3)c(C)c(=O)n1C2` (centres unmarked) [Compound 6.7.2, 7-(Cyclohexylhydroxymethyl)-2-fluoro-8-methyl-12-pentyl-11H-indolizino[1,2-b]quinolin-9-one] showed an inhibition at 20 µM of 76%.
